Assay results as given in patent US20100256179A1, “COMBINATION THERAPY FOR PAIN IN PAINFUL DIABETIC NEUROPATHY” (UCB PHARMA GMBH, priority 2004, published 2010).

Key:
[1] = system: formalin-induced flinching and licking response of the affected paw; assay: rat formalin paw test (late phase); assay type: in vivo
Method: Rats were given an intraplantar injection of 5% formalin (50 μl) into the posterior left paw. This treatment induces a recognizable flinching and licking response of the affected paw in control animals. The number of flinches was counted for 15 minutes, beginning 20 minutes after injection of formalin. The time spent licking the affected paw was also recorded.
Male Rj: Wistar (Han) rats, 10 per group, weighing 100-130 g at the beginning of the experiments were studied per group. The test was performed blind.

[2] = Safety and tolerability of lacosamide in the trial; assay type: in vivo, human
Text: Safety variables evaluated included adverse events, clinical laboratory assessments, electrocardiograms (ECGs), vital sign measurements, and physical and neurological examinations.

[3] = system: pain in subjects with diabetic distal sensory polyneuropathy; assay: Randomized, double-blind placebo controlled trial of lacosamide in painful diabetic neuropathy: efficacy; assay type: in vivo, human
Method: A randomized, double-blind placebo controlled trial to investigate safety and efficacy of lacosamide in painful diabetic neuropathy was conducted.
Baseline data were collected during the last week of a 4-week Run-In Phase to ensure subject eligibility. […] The highest attained dose was maintained for 4 weeks during the Maintenance Phase, after which subjects entered the Taper Phase and were tapered off of study medication for 1 week. The Taper Phase was followed by a 2-week Safety Follow-Up Phase.
Subjects were male or female, age 18 or older. Subjects had clinically diagnosed pain attributed to diabetic distal sensory polyneuropathy for 1-5 years and a diagnosis of diabetes mellitus (Type I or Type II). Subjects had at least moderate pain (mean pain intensity during the Baseline week ≧4 out of 10 on an 11-point Likert scale) which had been stable for 4 weeks prior to randomization. Furthermore, subjects had good or fair diabetic control (glycosylated hemoglobin (HbA1C) <10%), which was optimized (best effort to achieve best control) for at least three months prior to Visit 1. Test product, dose and mode of administration, batch number
After completion of screening assessments, subjects began a 4-week Run-In Phase. […] Following the titration scheme, their dosage was escalated by 100 mg in weekly increments to a maximum dose of 400 mg/day (provided tolerability was satisfactory).
If subjects reached total or sufficient pain relief with lower doses than 400 mg/day, after careful consideration by the investigator, they were allowed to stay on the attained dose level in the Maintenance Phase. If adverse events were intolerable during the Titration Phase or the first week of the Maintenance Phase (only for those subjects reaching the 400 mg/day level), subjects could be down-titrated, once, to the next lowest dose. Subjects were treated at 400 mg/day (or highest dose achieved) for 4 weeks in the Maintenance Phase.
The primary variable was the within-subject change in average daily pain score from the Baseline week to Maintenance Phase, using an 11-point Likert scale (0-10). […]

[4] = Trough and peak plasma concentrations of unchanged lacosamide in the trial; assay type: in vivo, human; settings: 400 mg/day, Maintenance Phase
[5] = Example 2, lacosamide 20 mg/kg i.p.
[6] = Example 3, lacosamide 10 mg/kg i.p.
[7] = Example 3, lacosamide 20 mg/kg i.p.
[8] = Example 4, lacosamide 10 mg/kg i.p.
[9] = Example 5, lacosamide 10 mg/kg i.p.
[10] = Example 5, lacosamide 20 mg/kg i.p.
[11] = Example 5, lacosamide alone at 10 mg/kg
[12] = of 60 subjects in the lacosamide group
[13] = Example 4, duloxetine 8 mg/kg i.p.
[14] = Example 2, gabapentin 50 mg/kg i.p.
[15] = Example 2, gabapentin 100 mg/kg i.p.

SMILES: COC[C@@H](NC(C)=O)C(=O)NCc1ccccc1 [Lacosamide, (R)-2-acetamido-N-benzyl-3-methoxypropionamide]
- Licking time % change (a): compared with vehicle control [1, 5]: −34% (a)
- Licking time (seconds) mean ± SEM [1, 5]: 146.9 ± 23.8 s
- No. of flinches % change (a): compared with vehicle control [1, 5]: −33% (a)
- No. of flinches mean ± SEM [1, 5]: 85.7 ± 14.3
- decrease in number of flinches as compared with vehicle controls ([1]; Example 2, lacosamide alone at 20 mg/kg): 33%
- decrease in time spent licking as compared with vehicle controls ([1]; Example 2, lacosamide alone at 20 mg/kg, p=0.0962): 34%
- Licking time % change (a): compared with vehicle control [1, 6]: −28% (a)
- Licking time (seconds) mean ± SEM [1, 6]: 210.1 ± 22.7 s
- No. of flinches % change (a): compared with vehicle control [1, 6]: +22% (a)
- No. of flinches mean ± SEM [1, 6]: 182.7 ± 25.9
- Licking time % change (a): compared with vehicle control [1, 7]: −56% (a)
- Licking time (seconds) mean ± SEM [1, 7]: 128.2 ± 28.0 s
- No. of flinches % change (a): compared with vehicle control [1, 7]: −35% (a)
- No. of flinches mean ± SEM [1, 7]: 97.2 ± 16.0
- increase in number of flinches as compared with vehicle controls ([1]; Example 3, lacosamide alone at 10 mg/kg): 22%
- decrease in time spent licking ([1]; Example 3, lacosamide alone at 10 mg/kg, p<0.05): 28%
- decrease in time spent licking ([1]; Example 3, lacosamide alone at 20 mg/kg, p<0.001): 56%
- decrease in number of flinches as compared with vehicle controls ([1]; Example 3, lacosamide alone at 20 mg/kg, p=0.0961): 35%
- decrease in time spent licking ([1]; Example 4, lacosamide 10 mg/kg alone, p=0.0538): 30%
- Licking time % change (a): compared with vehicle control [1, 8]: −30% (a)
- Licking time (seconds) mean ± SEM [1, 8]: 185.2 ± 31.7 s
- No. of flinches % change (a): compared with vehicle control [1, 8]: +5% (a)
- No. of flinches mean ± SEM [1, 8]: 158.2 ± 15.6
- Licking time % change (a): compared with vehicle control [1, 9]: −4% (a)
- Licking time (seconds) mean ± SEM [1, 9]: 168.5 ± 23.9 s
- No. of flinches % change (a): compared with vehicle control [1, 9]: −31% (a)
- No. of flinches mean ± SEM [1, 9]: 113.9 ± 23.2
- Licking time % change (a): compared with vehicle control [1, 10]: −52% (a)
- Licking time (seconds) mean ± SEM [1, 10]: 85.1 ± 19.1 s
- No. of flinches % change (a): compared with vehicle control [1, 10]: −48% (a)
- No. of flinches mean ± SEM [1, 10]: 85.8 ± 14.4
- decrease in number of flinches as compared with vehicle controls [1, 11]: 31%
- effect on time spent licking [1, 11]: no clear effects
- decrease in time spent licking ([1]; Example 5, lacosamide alone at 20 mg/kg, p<0.01): 52%
- decrease in number of flinches as compared with vehicle controls ([1]; Example 5, lacosamide alone at 20 mg/kg, p<0.05): 48%
- HbA1C level, mean change ([2]; Baseline to Visit 8, lacosamide group): 0.1%
- Body weight change during treatment ([2]; lacosamide group): -0.5 kg
- subjects who withdrew from the trial due to an AE ([2]; lacosamide group): 5 subjects
- subjects with a serious adverse event (SAE) ([2]; lacosamide treatment group, abnormal ECG judged unlikely related to study medication): one
- mean duration of exposure to study medication ([2]; lacosamide treatment group, indicating high tolerability): 59.6 days
- subjects reporting adverse events associated with the central and peripheral nervous system ([2]; of 60 lacosamide subjects): 38%
- subjects who reported at least one treatment-emergent adverse event (TEAE), overall incidence rate [2, 12]: 87%
- subjects who withdrew from the trial due to an AE [2, 12]: 8%
- weight gain ([2]; trial conclusion): did not induce weight gain
- reduction in pain from Baseline to the Maintenance Phase (average daily pain score, 11-point Likert scale), LSMean ([3]; Full Analysis Set (LOCF), oral lacosamide titrated to max 400 mg/day): 3.11 point
- proportion of subjects with a decrease of 2 or more points on the Likert pain scale ([3]; compared with the placebo group, all phases of the trial): larger proportion
- CGIC and PGIC scores ([3]; end of Maintenance Phase (Visit 10), lacosamide and placebo): Statistically significant differences
- difference in LSMean pain score between the two groups ([3]; lacosamide vs placebo, FAS (LOCF), p=0.0390): 0.9
- mean plasma drug concentration, peak ([4]; Visit 9): 11400 ng/mL
- mean plasma drug concentration, trough ([4]; Visit 9): 7700 ng/mL
- mean plasma drug concentration, peak ([4]; Visit 10): 9100 ng/mL
- mean plasma drug concentration, trough ([4]; Visit 10): 7900 ng/mL

SMILES: CNCC[C@H](Oc1cccc2ccccc12)c1cccs1 [Duloxetine]
- effects on number of flinches and time spent licking ([1]; Example 4, duloxetine 8 mg/kg alone): no clear effects
- Licking time % change (a): compared with vehicle control [1, 13]: −26% (a)
- Licking time (seconds) mean ± SEM [1, 13]: 195.5 ± 45.0 s
- No. of flinches % change (a): compared with vehicle control [1, 13]: −1% (a)
- No. of flinches mean ± SEM [1, 13]: 149.6 ± 27.3

SMILES: NCC1(CC(=O)O)CCCCC1 [Gabapentin]
- Licking time % change (a): compared with vehicle control [1, 14]: −28% (a)
- Licking time (seconds) mean ± SEM [1, 14]: 161.0 ± 27.3 s
- No. of flinches % change (a): compared with vehicle control [1, 14]: −24% (a)
- No. of flinches mean ± SEM [1, 14]: 97.4 ± 23.8
- Licking time % change (a): compared with vehicle control [1, 15]: −60% (a)
- Licking time (seconds) mean ± SEM [1, 15]: 90.0 ± 22.5 s
- No. of flinches % change (a): compared with vehicle control [1, 15]: −31% (a)
- No. of flinches mean ± SEM [1, 15]: 88.1 ± 19.4
- decrease in time spent licking ([1]; Example 2, gabapentin alone at 50 mg/kg): 28%
- decrease in number of flinches as compared with vehicle controls ([1]; Example 2, gabapentin alone at 50 mg/kg, non-significant): 24%
- decrease in number of flinches as compared with vehicle controls ([1]; Example 2, gabapentin alone at 100 mg/kg, non-significant): 31%
- decrease in time spent licking ([1]; Example 2, gabapentin alone at 100 mg/kg, p<0.05): 60%
